Measurements as given in US20260294947A1, “FUCOSYLATED MAMMALIAN MILK OLIGOSACCHARIDE FOR USE IN THE PREVENTION OR TREATMENT OF SHIPPING FEVER” (Inbiose N.V., priority 2023, published 2026).

Tests used:
[1] = Mortality and adverse effects in calves (health and safety observation); type: in vivo, Holstein Friesian calves (bovine)
Description: (§1) Holstein Friesian calves (2-3 week-old, 95% male) were transported from different farms to the experimental facility of Denkavit (Voorthuizen, The Netherlands) where the animals were reared. The experiment was performed in two trial rounds.
(§2) The calves were randomly and gender-equally divided in two groups based on experimental calf milk replacer: group A (placebo-standard calf milk replacer (CMR) powder of the farm) and group B (standard CMR powder supplemented with 0.005% drywt. 2′-fucosyllactose (2′FL, see Example 1). The calf milk replacer was administered as a liquid to the calves (water was added to the CMR powder to obtain 150 gram CMR powder per liter liquid CMR). Each group involved […], assigned into 12 rows. Each row contained 4 pens, where six calves were living in one pen.
(§3) 2′-fucosyllactose was supplied to calves via CMR (major components are presented in Table 1) during the whole trial, lasting 6 months. The Start CMR was given from arrival till week 6, which then switched to the Gold Alfa CMR up to day 136. The remaining time calves were fed with the Omega CMR. Solid feed (concentrates) was introduced gradually from arrival, starting with the Avance Alfa up till day 126, then replaced by the Avance Omega till the end of the experiment. Feed was provided ad libitum to calves twice a day (morning and evening) and were recorded daily based on rows (concentrates, straw, corn silage) or groups (CMR) consumption.
(§4) The calves were randomly and gender-equally divided in two groups based on experimental calf milk replacer (CMR): group A (placebo-standard CMR powder of the farm), group B (standard CMR powder supplemented with 0.005% drywt. 2′FL). The calf milk replacer was administered as a liquid to the calves (water was added to the CMR powder to obtain 150 gram CMR powder per liter liquid CMR). Each group involved 100 calves, assigned into four rows (25 calves per row) of two compartment blocks. Each row contained five pens, where four to six calves were living in one pen.
(§5) Starting from the day of arrival, calves received standard calf milk replacer (CMR) during a period of 9 weeks. Group A only received the CMR, while the CMR supplied to groups B was supplemented with 0.005% drywt. 2′FL. Calf starter (concentrates) and straw were introduced gradually from day 6 till the end of the experiment (12 weeks) while calves had access to corn silage at weeks 11 and 12. Feed were provided ad libitum to calves twice a day (morning and evening) and were recorded daily based on rows (concentrates, straw, corn silage) or groups (CMR) consumption.
Calves were followed up by the farm staffs since arrival till the end of the trial. Fecal consistency in scale 1-4 (Larson et al., 1977, J. Dairy Science, 60 (6): p. 989-991) was recorded daily for the first ten days since arrival. Number of mortalities and signs of adverse effects were registered daily. […] Disease incidences and medicinal usage based on individual treatments were recorded to compare between treatment groups. Live weight of the animals was monitored at arrival (d1), two weeks (W2), six weeks (W6), ten weeks (W10) and 12 weeks (W12) and 17 weeks (W17) since arrival. […]
(§6) Odds ratios and risk ratios of the pneumonia and diarrhea incidence were evaluated with the epitools R package using the Wald test (cran.r-project.org/web/packages/epitools/epitools.pdf). […]

acute pneumonia = experiment: Acute pneumonia incidence in calves fed 2′FL-supplemented calf milk replacer versus placebo (standard CMR); type: in vivo, Holstein Friesian calves (bovine)
Description: as §1, §2, §3, §4, §5
Calves were followed up by the farm staffs since arrival till the end of the trial. Fecal consistency in scale 1-4 (Larson et al., 1977, J. Dairy Science, 60 (6): p. 989-991) was recorded daily for the first ten days since arrival. Number of mortalities and signs of adverse effects were registered daily. The animals were treated prophylactically or metaphylactically (herd treatment) with 1 g oxytetracycline 100% (at day 4), 0.5 g Doxylin 50% WSP and 0.8 g bromhexine 2% (at day 13), and 3.1 ml Tilmicosol 250 mg/ml (at day 24) to prevent and/or treat acute lung inflammation. Individual treatments were followed by remark of the farm staffs and diagnostic of farm veterinary practitioners. Disease incidences and medicinal usage based on individual treatments were recorded to compare between treatment groups. Live weight of the animals was monitored at arrival (d1), two weeks (W2), six weeks (W6), ten weeks (W10) and 12 weeks (W12) and 17 weeks (W17) since arrival. Feed conversion ratio (FCR) of each period was computed based on the input of daily weight gain and daily feed intake. […]

diarrhea = experiment: Diarrhea incidence in calves fed 2′FL-supplemented calf milk replacer versus placebo (standard CMR); type: in vivo, Holstein Friesian calves (bovine); conditions: for Diarrhea cases: group B, 0.005% drywt. 2′FL in CMR
Description: as §1, §2, §3
The calves were randomly and gender-equally divided in two groups based on experimental calf milk replacer (CMR): group A (placebo-standard CMR powder of the farm), group B (standard CMR powder supplemented with 0.005% drywt. 2′FL). […]
Starting from the day of arrival, calves received standard calf milk replacer (CMR) during a period of 9 weeks. […] Feed were provided ad libitum to calves twice a day (morning and evening) and were recorded daily based on rows (concentrates, straw, corn silage) or groups (CMR) consumption.
Calves were followed up by the farm staffs since arrival till the end of the trial. Fecal consistency in scale 1-4 (Larson et al., 1977, J. Dairy Science, 60 (6): p. 989-991) was recorded daily for the first ten days since arrival. […] Disease incidences and medicinal usage based on individual treatments were recorded to compare between treatment groups. Live weight of the animals was monitored at arrival (d1), two weeks (W2), six weeks (W6), ten weeks (W10) and 12 weeks (W12) and 17 weeks (W17) since arrival. […]
as §6

jejunum = experiment: Jejunal RNAseq (transcriptomics), Gene Ontology enrichment analysis of differentially expressed genes, 2′FL versus placebo; type: in vivo, Bos taurus (calves); conditions: day 71 (W11)
Description: One healthy and middle weight calf of one pen per group was picked for euthanization in the slaughterhouse at day 71 (W11) (8 calves in total, 4 per group). A 20 cm segment of jejunum without Peyer's patch was excised and washed three times with physiological serum using a 30 ml syringe. A small segment (2-3 mm) was further excised and stored in 2 ml RNA protect tissue reagent (Qiagen) containing RNA preservation buffer for transportation at room temperature before long-term storage at −80° C.
Jejunal specimens stored in RNA protect tissue reagent were excised further to transfer 50 mg tissue into 2 ml tubes. The tissues were disrupted and homogenized using one stainless steel bead 5 mm in 900 μl QIAzol lysis reagent (QIAgen) in combination with a FASTPREP® 24 device. The homogenates were further manipulated according to the guidance of the manufacturer of the RNeasy plus universal tissue mini kit (QIAgen). The total purified RNA were eluted in 40 μl and quickly checked for the concentration and quality using Nanodrop (Implen NANOPHOTOMETER®) before storage at −80° C.
Total RNA was submitted to Azenta (Genewiz, Germany) to perform RNA sequencing. The total RNA was checked again for quality and concentration using Qubit and fragment analyzer before the mRNA were selected for polyA library preparation and sequenced using the ILLUMINA® Novaseq™ 2×150 bp technology platform guaranteed 20 million paired-end reads per samples (40 million reads).
RNA sequencing reads were quality-checked with fastqc (bioinformatics.babraham.ac.uk/projects/fastqc/) and trimmed with Trimmomatic (Bolger et al., 2014, Bioinformatics 30 (15): p. 2114-2120). Reads were aligned to the cow reference (Bos_taurus_UMD_3.1.1) using the genome alignment method in STAR (Dobin et al., 2013, Bioinformatics 29 (1): p. 15-21); Gene expression was quantified by featureCounts (Liao et al., 2014, Bioinformatics 30 (7): p. 923-930) and differential expression analysis was performed using DEseq2 (Love et al., 2014, Genome Biol. 15 (2): 550). Enrichment analysis of differential expressed was done in clusterProfiler (Wu et al., 2021, Innovation 2 (3): 100141) based on Gene Ontology.

## 2′-fucosyllactose [2′FL]
[1]; registered by the farm staffs, target animals (calves), both rounds
  Adverse effects: no adverse effects
[1]; round 1, 6 months, group B (2′FL), placebo 4.14%, 262800 min
  Mortality: 3.1%
[1]; round 1, 6 months, group B (2′FL), placebo 12 (4.14%)
  Calves dead: 9 calves
[1]; round 1, 6 months, Kaplan-Meier test
  Mortality, difference between groups: no significant difference in mortality between the experimental groups
[1]; round 2, 12 weeks, 7/400 calves died in all groups
  Mortality, difference between groups: no significant difference in mortality between the different groups
Acute pneumonia; round 1 (veal calf), 0.005% drywt. 2′FL in CMR
  Relative risk of getting acute pneumonia, group B versus placebo: 0.86
Acute pneumonia; round 1 (veal calf), group B, 0.005% drywt. 2′FL in CMR, 6 months, out of 290 calves, placebo 111 cases
  Acute pneumonia cases: 96 cases
Acute pneumonia; round 2 (rearing calf), 0.005% drywt. 2′FL in CMR
  Relative risk of getting acute pneumonia, group B versus placebo: 0.63
Acute pneumonia; round 2 (rearing calf), group B, 0.005% drywt. 2′FL in CMR for 9 weeks, 12-week trial, 100 calves per group, placebo 27 cases
  Acute pneumonia cases: 17 cases
Acute pneumonia; round 2 (rearing calf), group B, placebo 27%
  Acute pneumonia cases, share of calves: 17%
Acute pneumonia; rounds 1 and 2 integrated, standard CMR (placebo) versus 2′FL supplemented CMR, Mantel-Haenszel
  Common odds ratio of acute pneumonia: 1.35
diarrhea; round 1 (veal calf)
  Relative risk of getting diarrhea, group B versus placebo: 0.71
diarrhea; round 1 (veal calf), out of 290 calves, placebo 51 cases
  Diarrhea cases: 36 cases
diarrhea; round 1 (veal calf), standard CMR (placebo) versus 2′FL supplemented CMR
  Odds ratio associated with diarrhea: 1.51
diarrhea; round 2 (rearing calf), 100 calves per group, placebo 1 case
  Diarrhea cases: 0 cases
jejunum; 4 calves per group
  Immune responses versus placebo (enrichment analysis): enhanced immune responses in several ways (T cell activation, cell differentiation, cell-cell adhesion, adaptive immune response)
jejunum; group B versus placebo
  p. adjust, up-regulated gene ontology process ADAPTIVE_IMMUNE_RESPONSE: 4.15E−06
  p. adjust, up-regulated gene ontology process ADAPTIVE_IMMUNE_RESPONSE_BASED_ON_SOMATIC_RECOMBINATION_OF_IMMUNE_RECEPTORS_BUILT_FROM_IMMUNOGLOBULIN_SUPERFAMILY_DOMAINS: 0.00573
  p. adjust, up-regulated gene ontology process EXTERNAL_SIDE_OF_PLASMA_MEMBRANE: 0.000673
  p. adjust, up-regulated gene ontology process HETEROTYPIC_CELL_CELL_ADHESION: 0.003478
  p. adjust, up-regulated gene ontology process LEUKOCYTE_DIFFERENTIATION: 0.003462
  p. adjust, up-regulated gene ontology process LYMPHOCYTE_MEDIATED_IMMUNITY: 0.003478
  p. adjust, up-regulated gene ontology process MONONUCLEAR_CELL_DIFFERENTIATION: 0.000274
  p. adjust, up-regulated gene ontology process NEGATIVE_REGULATION_OF_ADAPTIVE_IMMUNE_RESPONSE: 0.002368
  p. adjust, up-regulated gene ontology process NEGATIVE_REGULATION_OF_IMMUNE_SYSTEM_PROCESS: 0.001169
  p. adjust, up-regulated gene ontology process NEGATIVE_REGULATION_OF_LEUKOCYTE_MEDIATED_IMMUNITY: 0.002368
  p. adjust, up-regulated gene ontology process NEGATIVE_REGULATION_OF_LYMPHOCYTE_MEDIATED_IMMUNITY: 0.00552
  p. adjust, up-regulated gene ontology process POSITIVE_THYMIC_T_CELL_SELECTION: 0.00573
  p. adjust, up-regulated gene ontology process POSITIVE_T_CELL_SELECTION: 0.003206
  p. adjust, up-regulated gene ontology process REGULATION_OF_ADAPTIVE_IMMUNE_RESPONSE: 0.003206
  p. adjust, up-regulated gene ontology process REGULATION_OF_LEUKOCYTE_MEDIATED_IMMUNITY: 0.003478
  p. adjust, up-regulated gene ontology process REGULATION_OF_T_CELL_ACTIVATION: 0.003668
  p. adjust, up-regulated gene ontology process T_CELL_ACTIVATION: 9.06E−06
  p. adjust, up-regulated gene ontology process T_CELL_DIFFERENTIATION: 0.000662
  p. adjust, up-regulated gene ontology process T_CELL_PROLIFERATION: 0.002368
  p. adjust, up-regulated gene ontology process T_CELL_RECEPTOR_COMPLEX: 0.000274
